Experimental findings from patent US6653327B2, “Cross-regulin composition of tumeric-derived tetrahydrocurcuminoids for skin lightening and protection against UVB rays” (Sabinsa Corporation, priority 1999, dated 2003) are described below.

Structures are written as SMILES.

In assay [1] the test system is UVB-induced sunburn cells and p21 protein in epidermis. In words: UVB-induced formation of sunburn cells and p21 protein levels in epidermis. The format is in vivo, SKH-1 mice. The following applies: 8 hours after UVB. As to the method: Female Sencar mice (5 mice per group) were treated topically with 100 ul acetone or inhibitor in acetone at 5 min before a single dose of UVB (60 mJ/cm2) irradiation. The mice were killed 8 hours after UVB irradiation, and the skin biopsies were evaluated for sunburn cells and p21 protein.

The test system of the next assay is TPA-induced ear edema. In words: TPA-induced ear edema in mice (ear punch weight). The following applies: 5 hours; for Wg/punch: mean SE. Format: in vivo, Female CF-1 mice. The protocol: Applicants have postulated that the crossregulin composition of the invention is an optimal composition for protecting and preserving healthy living cells and for preventing cytoskeletons of the healthy living cells from being damaged by TPA and TPA-like tumor promoters. In an experiment conducted in vivo, the ear skin of Female CF-1 mice was treated with either 20 microliters acetone, TPA in acetone or TPA with Tetrahydrocurcuminoids of the invention [THC1], known Tetrahydrocurcuminoids [THC2] and known pure (synthetic) Tetrahydrocurcumin [THC3].
Five hours later the mice were sacrificed and ear punches were weighted (the higher the weight, score the more severe the inflammation of the treated ear-skin). Based on the weight score of the ear punches, the percent of inflammation inhibition was calculated. Protection against inflammation in decreasing order was furnished by THC1 of the invention, followed by THC2 of the prior art, and finally followed by THC3. […] Prior art, as exemplified by the research data, cannot accomplish inhibition of the TPA induced ear edema above 80%. More than 80% inhibition of TPA-induced ear edema is necessary to prevent crosslinking of proteins which could trigger skin cancer. Therefore crossregulin action is not an inherent part of just any composition of THCs, but it is a specific composition that affords inhibition of the TPA mechanism by more than 80%.

[2] abbreviates: 10 uM topical 5 min before UVB (60 mJ/cm2).
Where [3] appears, read: 20 uM topical 5 min before UVB (60 mJ/cm2).

For `O=C(CC(=O)c1ccccc1)c1ccccc1` [DBM, dibenzoylmethane], in assay [1] (setting [2]), the “% p21” value amounted to 1.2%, the “Number of positive cells per 1 cm slide (p21)” value amounted to 33.5 ± 7.49, the “Number of sunburn cells per 1 cm slide” value worked out at 13.2 ± 5.35 and the “Percent Of Sunburn cells” value is listed as 1.2. For the same compound, in assay [1] (setting [3]), the “% p21” value is listed as 2.2%, the “Number of positive cells per 1 cm slide (p21)” value amounted to 60.6 ± 12.9, the “Number of sunburn cells per 1 cm slide” value is recorded as 8.6 ± 1.78 and the “Percent Of Sunburn cells” value came out at 0.9.

On to `COc1cc(CCC(=O)CC(=O)CCc2ccc(O)c(OC)c2)ccc1O` [THC3, tetrahydrocurcumin], for which the Wg/punch in the assay with TPA-induced ear edema (dose 0.36 mg topical with TPA (1 nmol) in acetone on both ears) amounted to 8.1 ± 0.3; in the assay on TPA-induced ear edema (dose 0.12 topical with TPA (1 nmol) in acetone on both ears) it was 7.8 ± 0.3. Also, the “% inhibition of TPA-induced ear edema” value with TPA-induced ear edema (dose 0.36 mg topical with TPA (1 nmol)) is listed as 77.2%; in the assay with TPA-induced ear edema (dose 0.12 topical with TPA (1 nmol)), 81.0%.
